Experimental data taken from US20130165475A1, “DEUTERIUM-ENRICHED HETEROCYCLIC COMPOUNDS AS KINASE INHIBITORS” (ASCEPION PHARMACEUTICALS, INC., priority 2010, published 2013).

Columns and labels:
VEGFR2 = target: T1, VEGFR2 (Homo sapiens, UniProt P35968); experiment: VEGFR2 cell-based assay (ELISA, phosphor-/total VEGFR2 in transfected CHO cells); conditions: compound at 100 nM; CHO cells transfected with full length VEGFR2; FBS stimulation; read-out: % VEGFR2 kinase activity remains
T1 construct: expressed in transfected cells; host or cells: CHO cells
Excerpt: A standard cell-based assay for VEGFR2 kinase activity can be used to test or screen the compounds of this invention and to identify VEGFR2 antagonists. In this example, ELISA kits (R&D Systems, Inc., Minneapolis, Minn. 55413, USA) were used.
The activity of VEGFR2 in cells depended on its autophosphorylation level by various factors including growth factors. In order to induce the cell to produce VEGFR2, full length of VEGFR2 sequence was cloned into PC-DNA3.1 vector, the plasmid was then transfected into CHO cells. After 48 hours, the expression of VEGFR2 in transfected CHO cells was confirmed by regular western blotting.
A compound to be tested was first dissolved in DMSO to a concentration of 10 mM and stored at −20° C. One day before the test, CHO cells transfected with full length VEGFR2 plasmid were grown in Dulbecco's Modified Eagle Medium (DMEM) without the presence of serum. On the day of the test, the compounds with various concentrations in DMSO (from 0.5 nM to 500 nM) were added into DMEM. Two hours later, 20% of FBS (Fetal Bovine Serum) was added into the medium to stimulate the production of phosphor-VEGFR2. Cell lysate from approximately 5×10^5 transfected CHO cells were reacted with anti-phosphor VEGFR2 or anti-total VEGFR2 antibody in 96-well plates, in the presence of detection antibody. The phosphor-VEGFR2 or total VEGFR2 were detected with Streptavidin-HRP(R&D Systems), followed by chemiluminescent detection. The level of VEGFR2 kinase activity was quantified as the ratio between the amount of phosphor- and that of total VEGFR2 proteins.

[1] = Oral bioavailability study, Group 1 (mice); type: in vivo, male ICR mice
Method: Oral pharmacokinetic studies were performed on Example 2. Specifically, this compound was dissolved in PEG-400 (2:1 mixture of PEG400 and 0.01N HCL (v/v)) and administered orally to male ICR mice at a dose of 50 mg/kg. Mice blood was obtained via eyeball enucleation at 0.25, 0.5, 1, 2, 3, 4, 6, 8, 12 and 24 hours after administration. The concentration of Example 2 in blood was determined using appropriate internal standards and reverse phase HPLC with UV detection.
Control blood samples were also used to identify compound-specific peaks. The oral bioavailability was determined by comparing the dose corrected areas under plasma-concentration time curve (AUC) to infinity for Example 2, given orally and intravenously in mice.

BEL7404 = experiment: In vivo anti-tumor efficacy, BEL7404 xenograft; parameters: species or system human; conditions: Liver cancer, BEL7404 s.c. in nu/nu Balb/c athymic mice, 50 mg/kg once per day oral gavage
EphB4 = target: T2, EphB4 (Homo sapiens, UniProt P54760); experiment: EphB4 cell-based assay (quantitative Western blotting, PC-3 cells, Ephrin-B2 stimulated); conditions: compound at 100 nM; PC-3 human prostate cancer cells; Ephrin-B2 stimulation; read-out: % EphB4 kinase activity remains
T2 construct: EphB4 autophosphorylation in PC-3 human prostate cancer cells; host or cells: PC-3 human prostate cancer cells
T2 sequence (P54760 16-987): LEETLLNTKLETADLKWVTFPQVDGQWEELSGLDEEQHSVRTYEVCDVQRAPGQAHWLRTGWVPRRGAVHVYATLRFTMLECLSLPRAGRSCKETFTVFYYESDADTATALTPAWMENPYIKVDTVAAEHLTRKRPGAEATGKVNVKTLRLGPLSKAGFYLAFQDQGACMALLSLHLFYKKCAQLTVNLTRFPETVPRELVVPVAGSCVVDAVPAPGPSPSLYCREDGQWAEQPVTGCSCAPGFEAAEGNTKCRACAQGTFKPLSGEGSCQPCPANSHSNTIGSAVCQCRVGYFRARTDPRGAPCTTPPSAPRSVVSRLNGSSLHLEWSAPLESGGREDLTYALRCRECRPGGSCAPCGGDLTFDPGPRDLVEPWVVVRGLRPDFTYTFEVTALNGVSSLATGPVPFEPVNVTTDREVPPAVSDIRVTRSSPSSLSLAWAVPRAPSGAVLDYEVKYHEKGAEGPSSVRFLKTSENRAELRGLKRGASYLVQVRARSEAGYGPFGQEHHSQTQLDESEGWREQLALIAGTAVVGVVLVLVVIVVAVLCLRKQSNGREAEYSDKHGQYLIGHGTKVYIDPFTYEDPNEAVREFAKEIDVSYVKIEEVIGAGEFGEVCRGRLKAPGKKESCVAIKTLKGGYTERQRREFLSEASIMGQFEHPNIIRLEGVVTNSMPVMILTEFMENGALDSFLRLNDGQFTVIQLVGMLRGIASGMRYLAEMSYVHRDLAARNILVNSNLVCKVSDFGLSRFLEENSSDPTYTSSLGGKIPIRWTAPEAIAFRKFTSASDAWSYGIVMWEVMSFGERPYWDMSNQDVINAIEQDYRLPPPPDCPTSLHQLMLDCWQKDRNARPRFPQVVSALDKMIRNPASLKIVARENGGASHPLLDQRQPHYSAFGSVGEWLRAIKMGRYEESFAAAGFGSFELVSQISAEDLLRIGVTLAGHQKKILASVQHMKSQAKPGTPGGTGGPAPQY
Excerpt: A standard image-based quantitative Western blotting assay for EphB4 kinase activity can be used to test or screen the compounds of this invention and to identify EphB4 antagonists.
The kinase activity of EphB4 in cells depends on its autophosphorylation level stimulated by the binding to its ligand Ephrin-B2. High level of EphB4 autophosphorylation in PC-3 human prostate cancer cells (ATCC, USA) induced by the application of Ephrin-B2 to the cell culture can be observed by regular Western blotting assay.
A compound to be tested was first dissolved in DMSO to a concentration of 10 mM and stored at −20° C. On the day of screening procedure, the compound in DMSO was added into DMEM medium to a final concentration of 100 nM. Two hours later, Ephrin-B2 ([…]) was added into DMEM medium to stimulate the production of phosphor-EphB4. The phosphor-EphB4 was detected based on its molecular weight and with anti-phosphor protein antibody PY-20 in cell lysate from approximately 5×10^5 PC-3 cells by Western blotting followed by imaging quantification. The relative level of EphB4 kinase activity was quantified as the ratio between the amount of phosphor-EphB4 and that of total Actin proteins.

T1 sequence (P35968 20-1356): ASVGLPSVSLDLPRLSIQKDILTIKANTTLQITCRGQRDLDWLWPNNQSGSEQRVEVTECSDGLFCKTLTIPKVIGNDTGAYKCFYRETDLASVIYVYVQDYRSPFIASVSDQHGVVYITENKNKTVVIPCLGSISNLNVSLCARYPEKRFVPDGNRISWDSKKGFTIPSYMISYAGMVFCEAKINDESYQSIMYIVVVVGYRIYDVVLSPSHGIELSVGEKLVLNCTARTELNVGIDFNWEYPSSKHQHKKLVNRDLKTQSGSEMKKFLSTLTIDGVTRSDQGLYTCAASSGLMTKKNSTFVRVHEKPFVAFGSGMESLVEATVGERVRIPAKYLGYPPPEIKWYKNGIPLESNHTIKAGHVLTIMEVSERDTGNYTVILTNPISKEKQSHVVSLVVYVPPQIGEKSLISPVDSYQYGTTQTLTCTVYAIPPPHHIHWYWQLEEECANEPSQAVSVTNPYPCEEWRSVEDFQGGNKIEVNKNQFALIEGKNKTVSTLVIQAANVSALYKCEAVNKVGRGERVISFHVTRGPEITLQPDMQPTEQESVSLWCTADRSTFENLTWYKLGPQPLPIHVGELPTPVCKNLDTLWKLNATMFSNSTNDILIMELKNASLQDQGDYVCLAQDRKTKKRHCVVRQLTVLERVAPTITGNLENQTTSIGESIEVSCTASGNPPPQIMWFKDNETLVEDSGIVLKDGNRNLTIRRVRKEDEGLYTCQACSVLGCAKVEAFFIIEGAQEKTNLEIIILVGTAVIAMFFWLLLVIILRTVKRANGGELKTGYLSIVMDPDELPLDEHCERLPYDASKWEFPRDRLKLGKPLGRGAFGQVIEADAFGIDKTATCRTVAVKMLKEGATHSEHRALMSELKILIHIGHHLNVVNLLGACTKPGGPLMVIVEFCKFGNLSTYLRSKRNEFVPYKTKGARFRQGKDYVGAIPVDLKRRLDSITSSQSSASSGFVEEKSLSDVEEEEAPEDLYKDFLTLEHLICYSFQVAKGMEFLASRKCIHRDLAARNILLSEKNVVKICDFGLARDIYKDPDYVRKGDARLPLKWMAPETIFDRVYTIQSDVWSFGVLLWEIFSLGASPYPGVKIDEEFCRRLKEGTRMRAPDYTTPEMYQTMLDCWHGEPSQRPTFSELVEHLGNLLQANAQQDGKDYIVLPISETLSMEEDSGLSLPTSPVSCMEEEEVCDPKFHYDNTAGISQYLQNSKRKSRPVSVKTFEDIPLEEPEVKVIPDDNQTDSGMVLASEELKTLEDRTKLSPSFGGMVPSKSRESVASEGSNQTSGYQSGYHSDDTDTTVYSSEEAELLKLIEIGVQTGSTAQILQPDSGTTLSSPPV

| remaining activity at 0.1 µM (VEGFR2) | amount detected in blood after oral dosing ([1]; mice, 0.25 hour after 50 mg/kg oral dosing) | bioavailability ([1]; mouse, plasma, male ICR mice, 50 mg/kg oral, AUC to infinity oral vs intravenous) | half-life ([1]; mouse, whole blood, male ICR mice, 50 mg/kg oral) | remaining activity at 0.1 µM (EphB4) | SMILES | Tumor Growth Inhibition (TGI) (BEL7404) |
| --- | --- | --- | --- | --- | --- | --- |
| < 70% | substantial amounts | > 88% | 2.3 to 3.5 h | < 70% | Cl.[2H]C([2H])(c1ccnc(N)c1)n1ccc2c(NC(=O)Nc3cc(Cl)ccc3OC)cccc21 [Example 2, 1-[1-[(2-amino-4-pyridyl)-dideuteriomethyl]indol-4-yl]-3-(5-chloro-2-methoxyphenyl)urea hydrochloride] | A (the TGI is greater or equal to 50%) |
| < 70% |  |  |  | ≥ 70% | [2H]C(c1c[nH]c2ncccc12)N1CCc2c(NC(=O)Nc3cccc(C)c3)cccc21 (stereo not shown) [Example 21, 1-[1-[Deuterio(1H-pyrrolo[2,3-b]pyridin-3-yl)methyl]indolin-4-yl]-3-(m-tolyl)urea] |  |
| < 70% |  |  |  | ≥ 70% | [2H]C(c1c[nH]c2ncccc12)n1ccc2c(NC(=O)Nc3cccc(C)c3)cccc21 (stereo not shown) [Example 22, 1-[1-[deuterio(1H-pyrrolo[2,3-b]pyridin-3-yl)methyl]indol-4-yl]-3-(m-tolyl)urea] |  |
